Test results as given in paper PMC11164105, “Exploring of N-phthalimide-linked 1,2,3-triazole analogues with promising -anti-SARS-CoV-2 activity: synthesis, biological screening, and molecular modelling studies” (Journal of Enzyme Inhibition and Medicinal Chemistry, 2024).
Read-outs that look alike come from different tables or passages of the source.

Key:
[1] = system: SARS-CoV-2 isolate EGY/WAT-2 VACCERA; test: microbe, parasite or virus in culture; type: cell-based; conditions: for (API) Antiviral potency index: ratio of the inhibition % of the tested compound to that of Remdesivir at 10 μM, 1 = identical effect; for inhibition at 10 µM: Severe acute respiratory syndrome coronavirus 2, Vero C1008, 10 uM
Vero E6 cells = test: Cytotoxicity evaluation using MTT viability assay; conditions: Vero E6 cytotoxicity IC50 compared with the antiviral activity maximum concentration (10 mM printed in footnote, 10 uM in text)
SARS-CoV-2 Mpro = target: T1, SARS-CoV-2 Mpro (Severe acute respiratory syndrome coronavirus 2, UniProt P0DTD1); test: SARS-CoV-2 Mpro inhibition assay (BPS Bioscience, FRET peptide); type: biochemical
T1 construct: purchased BPS Bioscience

main protease Mpro = system: main protease Mpro; set-up: method as in PMID 36986562; conditions: read-out: IC50 of main protease Mpro inhibition; cited from earlier work
SARS-CoV-2 [2] = system: SARS-CoV-2; set-up: method as in PMID 36986562; conditions: 10 µM, Vero 6 cells; cited from earlier work
COVID-19 = system: COVID-19; set-up: method as in PMID 34914868; conditions: adult patients with mild-to-moderate COVID-19, not hospitalized, phase-3; cited from earlier work
SARS-CoV-2 [3] = system: SARS-CoV-2; set-up: method as in PMID 34750163; conditions: ritonavir and Nirmatrelvir used in conjunction; cited from earlier work
[4] = in vitro enzyme assay, read-out: IC50 against SARS-CoV-2 Mpro
[5] = Severe acute respiratory syndrome coronavirus 2, Vero C1008, 1 uM, infected Vero E6 cells, read-out: % of inhibition of SARS CoV-2

Molecule	(API) Antiviral potency index [1]	melting point	also measured
O=C1c2ccccc2C(=O)N1/N=C/c1ccc(OCc2cn(-c3ccc(Cl)c(Cl)c3)nn2)cc1 [Compound 8g, (E)-2-((4-((1–(3,4-dichlorophenyl)-1H-1,2,3-triazol-4-yl)methoxy)benzylidene)amino)isoindoline-1,3-dione]	0.96		
O=C(Cn1cc(COc2ccc(/C=N/N3C(=O)c4ccccc4C3=O)cc2)nn1)Nc1ccc(I)cc1F [Compound 6c, (E)-2–(4-((4-(((1,3-dioxoisoindolin-2-yl)imino)methyl)phenoxy)methyl)-1H-1,2,3-triazol-1-yl)-N-(2-fluoro-4-iodophenyl)acetamide]	0.96	228 to 229 °C	
CCC(CC)COC(=O)[C@H](C)N[P@](=O)(OC[C@H]1O[C@@](C#N)(c2ccc3c(N)ncnn23)[C@H](O)[C@@H]1O)Oc1ccccc1 [Remdesivir, reference compound]			inhibition at 1 µM ([1]; Severe acute respiratory syndrome coronavirus 2, Vero C1008, read-out: % of inhibition of SARS CoV-2): 92.7%; EC50 ([1]; Severe acute respiratory syndrome coronavirus 2, Vero C1008, read-out: EC50 of virus inhibition): 0.029 µM; CT/A Cytotoxicity/activity parameter (Vero E6 cells): 4.31
CC(=O)OC[C@@H]1O[C@H](n2cc(COc3ccc(/C=N/N4C(=O)c5ccccc5C4=O)cc3)nn2)[C@@H](OC(C)=O)[C@H](OC(C)=O)[C@H]1OC(C)=O [Compound 10a, (2S,3S,4R,5S,6S)-2-(acetoxymethyl)-6–(4-((4-((E)-((1,3-dioxoisoindolin-2-yl)imino)methyl)phenoxy)methyl)-1H-1,2,3-triazol-1-yl)tetrahydro-2H-pyran-3,4,5-triyl triacetate]	0.92	166 to 167 °C	IC50 (SARS-CoV-2 Mpro; [4]): 1090 ± 55.5 µM
O=C(Cn1cc(COc2ccc(/C=N/N3C(=O)c4ccccc4C3=O)cc2)nn1)Nc1ccc(C(=O)O)cc1 [Compound 6a, (E)-4–(2-(4-((4-(((1,3-dioxoisoindolin-2-yl)imino)methyl)phenoxy)methyl)-1H-1,2,3-triazol-1-yl)acetamido)benzoic acid]	0.98	264 to 265 °C	% of inhibition of SARS CoV-2 ([1]; 10 uM, infected Vero E6 cells): 94.96%; inhibition at 0.01 µM ([1]; Severe acute respiratory syndrome coronavirus 2, Vero C1008, 0.01 uM): ~40%; inhibition at 1 µM [1, 5]: 87.8%; inhibition at 10 µM ([1]; infected Vero E6 cells): 94%; EC50 ([1]; Severe acute respiratory syndrome coronavirus 2, Vero C1008, dose-response at five concentrations starting from 10 uM, read-out: EC50 of virus inhibition): 0.038 µM; IC50 (SARS-CoV-2 Mpro; [4]): 113 ± 5.75 µM
O=C(Cn1cc(COc2ccc(/C=N/N3C(=O)c4ccccc4C3=O)cc2)nn1)NCc1ccc(Cl)cc1 [Compound 6h, (E)-N-(4-chlorobenzyl)-2–(4-((4-(((1,3-dioxoisoindolin-2-yl)imino)methyl)phenoxy)methyl)-1H-1,2,3-triazol-1-yl)acetamide]	0.95	208 to 209 °C	
O=C1c2ccccc2C(=O)N1/N=C/c1ccc(OCc2cn(-c3ccccc3F)nn2)cc1 [Compound 8e, (E)-2-((4-((1–(2-fluorophenyl)-1H-1,2,3-triazol-4-yl)methoxy)benzylidene)amino)isoindoline-1,3-dione]	0.98	248 to 249 °C	inhibition at 1 µM [1, 5]: 83.6%
Cc1ccc(CNC(=O)Cn2cc(COc3ccc(/C=N/N4C(=O)c5ccccc5C4=O)cc3)nn2)cc1 [Compound 6f, (E)-2–(4-((4-(((1,3-dioxoisoindolin-2-yl)imino)methyl)phenoxy)methyl)-1H-1,2,3-triazol-1-yl)-N-(4-methylbenzyl) acetamide]	0.92	201 to 202 °C	
(E)-2-((4-((1–(3-fluoro-4-methylphenyl)-1H-1,2,3-triazol-4-yl)methoxy)benzylidene)amino) Isoindoline-1,3-dione [Compound 8d]	0.92		
O=C(Cn1cc(COc2ccc(/C=N/N3C(=O)c4ccccc4C3=O)cc2)nn1)Nc1ccc(F)cc1 [Compound 6e, (E)-2–(4-((4-(((1,3-dioxoisoindolin-2-yl)imino)methyl)phenoxy)methyl)-1H-1,2,3-triazol-1-yl)-N-(4-fluorophenyl) acetamide]	0.96	219 to 220 °C	
CCOC(=O)c1ccc(-n2cc(COc3ccc(/C=N/N4C(=O)c5ccccc5C4=O)cc3)nn2)cc1 [Compound 8f, ethyl (E)-4–(4-((4-(((1,3-dioxoisoindolin-2-yl)imino)methyl)phenoxy)methyl)-1H-1,2,3-triazol-1-yl)benzoate]	0.91	224 to 225 °C	
O=C1c2ccccc2C(=O)N1/N=C/c1ccc(OCc2cn(-c3ccc(F)cc3)nn2)cc1 [Compound 8a, (E)-2-((4-((1–(4-fluorophenyl)-1H-1,2,3-triazol-4-yl)methoxy)benzylidene)amino) isoindoline-1,3-dione]	0.96	238 to 239 °C	
O=C(Cn1cc(COc2ccc(/C=N/N3C(=O)c4ccccc4C3=O)cc2)nn1)Nc1ccc([N+](=O)[O-])cc1 [Compound 6d, (E)-2–(4-((4-(((1,3-dioxoisoindolin-2-yl)imino)methyl)phenoxy)methyl)-1H-1,2,3-triazol-1-yl)-N-(4-nitrophenyl)acetamide]	0.98	242 to 243 °C	
(E)-2-((4-((1–(4-nitrophenyl)-1H-1,2,3-triazol-4-yl)methoxy)benzylidene)amino)isoindoline-1,3-dione [Compound 8c]	0.96		CT/A Cytotoxicity/activity parameter (Vero E6 cells): 8.62
CC1=NN(c2ccc(Cl)cc2)C(=O)/C1=C\c1ccc(OCc2cn(CC(=O)Nc3ccc(C(=O)O)cc3)nn2)cc1 [Compound 11]			IC50 (main protease Mpro): 3.16 ± 1.2 µM; inhibition of SARS-CoV-2 growth (SARS-CoV-2 [2]): 63.39 ± 0.48%
O=C(Cn1cc(COc2ccc(/C=N/N3C(=O)c4ccccc4C3=O)cc2)nn1)NCc1ccc(F)cc1 [Compound 6g, (E)-2–(4-((4-(((1,3-dioxoisoindolin-2-yl)imino)methyl)phenoxy)methyl)-1H-1,2,3-triazol-1-yl)-N-(4-fluorobenzyl) acetamide]	0.97		inhibition at 10 µM ([1]; infected Vero E6 cells): 94%; IC50 (SARS-CoV-2 Mpro; [4]): 90.1 ± 4.59 µM
CC(=O)c1ccc(-n2cc(COc3ccc(/C=N/N4C(=O)c5ccccc5C4=O)cc3)nn2)cc1 [Compound 8h, (E)-2-((4-((1–(4-acetylphenyl)-1H-1,2,3-triazol-4-yl)methoxy)benzylidene)amino)isoindoline-1,3-dione]	0.96	275 to 276 °C	
O=C(O)c1ccc(-n2cc(COc3ccc(/C=N/N4C(=O)c5ccccc5C4=O)cc3)nn2)cc1 [Compound 8b, (E)-4–(4-((4-(((1,3-dioxoisoindolin-2-yl)imino)methyl)phenoxy)methyl)-1H-1,2,3-triazol-1-yl)benzoic acid]	0.91	287 to 288 °C	
Cc1cccc(C)c1OCC(=O)N[C@@H](Cc1ccccc1)[C@@H](O)C[C@H](Cc1ccccc1)NC(=O)[C@H](C(C)C)N1CCCNC1=O [Lopinavir, reference compound]			IC50 (SARS-CoV-2 Mpro): 149 ± 7.48 µM
CC(=O)OC[C@@H]1O[C@H](n2cc(COc3ccc(/C=N/N4C(=O)c5ccccc5C4=O)cc3)nn2)[C@@H](OC(C)=O)[C@H](OC(C)=O)[C@@H]1OC(C)=O [Compound 10b, (2S,3R,4R,5S,6S)-2-(acetoxymethyl)-6–(4-((4-((E)-((1,3-dioxoisoindolin-2-yl)imino)methyl)phenoxy)methyl)-1H-1,2,3-triazol-1-yl)tetrahydro-2H-pyran-3,4,5-triyl triacetate]	0.90		
O=C(Cn1cc(COc2ccc(/C=N/N3C(=O)c4ccccc4C3=O)cc2)nn1)Nc1ccccc1I [Compound 6b, (E)-2–(4-((4-(((1,3-dioxoisoindolin-2-yl)imino)methyl)phenoxy)methyl)-1H-1,2,3-triazol-1-yl)-N-(2-iodophenyl) acetamide]	0.97	213 to 214 °C	
CC(C)C(=O)OC[C@H]1O[C@@H](n2ccc(NO)nc2=O)[C@H](O)[C@@H]1O [Moldupiravir]			reduction of the risk of death or hospitalisation (COVID-19): 30%
CC(C)(C)[C@H](NC(=O)C(F)(F)F)C(=O)N1C[C@H]2[C@@H]([C@H]1C(=O)N[C@H](C#N)C[C@@H]1CCNC1=O)C2(C)C [Nirmatrelvir]			decrease in hospitalisation or mortality (SARS-CoV-2 [3]): 89%
